# Data: article PMC3541360 (2013)
# What was measured:
# [1] = tested on: MNSG4 (oligo TrMNS-I) (DNA, G4) TGGGTCTGAGGGAGGAGGGGCTGGGGGC; test: fluorescent intercalator displacement (thiazole orange); conditions: 60 mM K+; 10 mM potassium cacodylate pH 7.4, 50 mM KCl; 0.25 µM DNA, 0.50 µM thiazole orange displaced
# [2] = tested on: -80 G4 (oligo Tr-80-I) (DNA, G4) CGGGGGCGCGTGAGGGGCGGGGTGGGC; test: as above; conditions: 60 mM K+; 10 mM potassium cacodylate pH 7.4, 50 mM KCl; 0.25 µM DNA, 0.50 µM thiazole orange displaced
# [3] = tested on: MNSG4 (oligo TrMNS-I) (DNA, G4) TGGGTCTGAGGGAGGAGGGGCTGGGGGC; test: CD melting, 295 nm; conditions: 100 mM K+; 10 mM Tris-HCl pH 7.4; 5 µM DNA, 10 µM compound; absolute Tm, free DNA 71.4±0.5 °C
compound,measurement,setting,value
[Cl-].[Cl-].[Pt+2].[Pt+2].c1ccc(CN(CCOc2cc(-c3ccccn3)nc(-c3ccccn3)c2)Cc2ccccn2)nc1,MSN1DC50,[1],0.39 µM
same,−80 G4DC50,[2],2.22 µM
[Cl-].[Cl-].[Cl-].[Cl-].[Cu+2].[Cu+2].c1ccc(CN(CCOc2cc(-c3ccccn3)nc(-c3ccccn3)c2)Cc2ccccn2)nc1,Tm (with ligand),[3],86.2±2.1 °C
same,MSN1DC50,[1],0.31 µM
same,−80 G4DC50,[2],0.19 µM
[Pt+2].[S-]CCN1CCCCC1.c1ccc(-c2cc(OCCN3CCOCC3)cc(-c3ccccn3)n2)nc1,MSN1DC50,[1],0.76 µM
same,−80 G4DC50,[2],0.55 µM
